Experimental data published in ChEMBL document CHEMBL4382262, “Structurally Simple, Readily Available Peptidomimetic 1-Benzyl-5-methyl-4-( n-octylamino)pyrimidin-2(1 H)-one Exhibited Efficient Cardioprotection in a Myocardial Ischemia (MI) Mouse Model” (J Med Chem, 2018).
Activity calls are given as the source filed them. The rule behind the calls is not given here.

Assays:
[1] = target: T1, Toll-like receptor 4 (Rattus norvegicus) (UniProt Q9QX05); test: Inhibition of TLR4 in Sprague-Dawley rat cardiomyocytes assessed as reduction in hypoxia-induced creatine kinase levels at 20 uM preincubated for 1 hr followed by hypoxia for 3 hrs by NADP reduction based colorimetric analysis; type: cell-based
T1 sequence (whole entry): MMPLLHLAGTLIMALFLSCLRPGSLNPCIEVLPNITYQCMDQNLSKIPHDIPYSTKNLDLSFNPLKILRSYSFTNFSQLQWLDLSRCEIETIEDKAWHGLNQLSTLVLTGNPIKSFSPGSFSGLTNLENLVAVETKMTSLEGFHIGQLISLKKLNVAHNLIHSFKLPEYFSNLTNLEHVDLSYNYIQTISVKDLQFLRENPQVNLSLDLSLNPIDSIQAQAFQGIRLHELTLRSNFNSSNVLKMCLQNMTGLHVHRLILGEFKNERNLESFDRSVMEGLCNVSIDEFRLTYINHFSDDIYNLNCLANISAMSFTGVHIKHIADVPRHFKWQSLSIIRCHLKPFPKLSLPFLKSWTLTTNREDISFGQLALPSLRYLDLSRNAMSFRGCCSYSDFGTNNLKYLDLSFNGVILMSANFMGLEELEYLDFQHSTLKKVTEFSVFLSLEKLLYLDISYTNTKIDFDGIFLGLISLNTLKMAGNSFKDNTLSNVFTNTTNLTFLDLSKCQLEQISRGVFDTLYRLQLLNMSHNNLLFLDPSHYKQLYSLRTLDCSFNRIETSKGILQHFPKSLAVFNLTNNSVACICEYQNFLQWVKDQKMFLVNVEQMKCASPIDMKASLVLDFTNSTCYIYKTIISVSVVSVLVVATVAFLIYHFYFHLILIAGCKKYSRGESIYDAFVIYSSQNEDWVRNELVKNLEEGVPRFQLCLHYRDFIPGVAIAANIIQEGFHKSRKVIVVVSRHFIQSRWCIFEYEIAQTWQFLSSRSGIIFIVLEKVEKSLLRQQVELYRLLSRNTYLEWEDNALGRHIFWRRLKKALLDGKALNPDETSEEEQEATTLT

[2] = target: T1, Toll-like receptor 4 (Rattus norvegicus); test: Inhibition of TLR4 in Sprague-Dawley rat cardiomyocytes assessed as reduction in hypoxia-induced creatine kinase levels at 10 uM preincubated for 1 hr followed by hypoxia for 3 hrs by NADP reduction based colorimetric analysis; type: cell-based
[3] = target: T1, Toll-like receptor 4 (Rattus norvegicus); test: Inhibition of TLR4 in Sprague-Dawley rat cardiomyocytes assessed as reduction in hypoxia-induced LDH release at 10 uM preincubated for 1 hr followed by hypoxia for 3 hrs by NADH detection based colorimetric analysis; type: cell-based
[4] = target: T1, Toll-like receptor 4 (Rattus norvegicus); test: Inhibition of TLR4 in Sprague-Dawley rat cardiomyocytes assessed as reduction in hypoxia-induced creatine kinase levels at 20 uM preincubated for 1 hr followed by induction of hypoxia measured after 3 hrs by NADP reduction based colorimetric analysis; type: cell-based
[5] = target: T1, Toll-like receptor 4 (Rattus norvegicus); test: Inhibition of TLR4 in Sprague-Dawley rat cardiomyocytes assessed as reduction in hypoxia-induced creatine kinase levels at 5 uM preincubated for 1 hr followed by hypoxia for 3 hrs by NADP reduction based colorimetric analysis; type: cell-based
[6] = target: T1, Toll-like receptor 4 (Rattus norvegicus); test: Inhibition of TLR4 in Sprague-Dawley rat cardiomyocytes assessed as reduction in hypoxia-induced LDH release at 5 uM preincubated for 1 hr followed by hypoxia for 3 hrs by NADH detection based colorimetric analysis; type: cell-based
[7] = Reduction in hypoxia-induced TLR4 mRNA expression in Sprague-Dawley rat cardiomyocytes at 20 uM preincubated for 1 hr followed by hypoxia for 3 hrs by RT-qPCR analysis relative to untreated control; type: functional, Cardiac muscle cell
[8] = target: T1, Toll-like receptor 4 (Rattus norvegicus); test: Inhibition of TLR4 in Sprague-Dawley rat cardiomyocytes assessed as reduction in hypoxia-induced IL-1beta mRNA expression at 20 uM preincubated for 1 hr followed by hypoxia for 3 hrs by RT-qPCR analysis; type: cell-based
[9] = target: T1, Toll-like receptor 4 (Rattus norvegicus); test: Inhibition of TLR4 in Sprague-Dawley rat cardiomyocytes assessed as reduction in hypoxia-induced TRAM protein expression at 20 uM preincubated for 1 hr followed by hypoxia for 3 hrs by Western blot analysis relative to untreated control; type: cell-based
[10] = target: T1, Toll-like receptor 4 (Rattus norvegicus); test: Inhibition of TLR4 in hypoxia-induced Sprague-Dawley rat cardiomyocytes assessed as increase in IkappaB-alpha protein expression at 20 uM preincubated for 1 hr followed by hypoxia for 3 hrs by Western blot analysis relative to untreated control
[11] = target: T1, Toll-like receptor 4 (Rattus norvegicus); test: Binding affinity to TLR4 in Sprague-Dawley rat cardiomyocytes at 20 uM after 2 hrs by MS/MS-based pull down assay; type: cell-based
Mus musculus [12] = test: Cardioprotective activity in C57BL mouse model of left anterior descending coronary artery ligation-induced myocardial ischemia assessed as reduction in creatine kinase levels at 0.3 mg/kg, iv pretreated for 1 hr followed by left anterior descending coronary artery ligation; type: functional, organism-based
Mus musculus [13] = test: Cardioprotective activity in C57BL mouse model of left anterior descending coronary artery ligation-induced myocardial ischemia assessed as reduction in LDH […] levels at 0.3 mg/kg, iv pretreated for 1 hr followed by left anterior descending coronary artery ligation; type: functional, organism-based
Mus musculus [14] = test: Cardioprotective activity in C57BL mouse model of left anterior descending coronary artery ligation-induced myocardial ischemia assessed as reduction in troponin levels at 0.3 mg/kg, iv pretreated for 1 hr followed by left anterior descending coronary artery ligation; type: functional, organism-based
Mus musculus [15] = test: Cardioprotective activity in C57BL mouse model of left anterior descending coronary artery ligation-induced myocardial ischemia assessed as reduction in heart infarct size at 0.05 to 1 mg/kg, iv pretreated for 1 hr followed by left anterior descending coronary artery ligation; type: functional, organism-based
Mus musculus [16] = test: Cardioprotective activity in C57BL mouse model of left anterior descending coronary artery ligation-induced myocardial ischemia assessed as reduction in heart infarct size at 0.3 mg/kg, iv pretreated for 1 hr followed by left anterior descending coronary artery ligation; type: functional, organism-based
Mus musculus [17] = test: (§1) Cardioprotective activity in C57BL mouse model of left anterior descending coronary artery ligation-induced myocardial ischemia assessed as reduction in serum LDH levels at 0.3 mg/kg, iv treated 1 hr after by left anterior descending coronary artery ligation and measured after 7 days post LAD; type: functional, organism-based
Mus musculus [18] = test: Cardioprotective activity in C57BL mouse model of left anterior descending coronary artery ligation-induced myocardial ischemia assessed as reduction in serum LDH levels at 0.3 mg/kg, iv treated for 1 hr after by left anterior descending coronary artery ligation and measured after 24 hrs post LAD; type: functional, organism-based
Mus musculus [19] = test: Cardioprotective activity in C57BL mouse model of left anterior descending coronary artery ligation-induced myocardial ischemia assessed as reduction in heart infarct size at 0.3 mg/kg, iv treated 1 hr after left anterior descending coronary artery ligation and measured after 24 hrs post LAD; type: functional, organism-based
Mus musculus [20] = test: as §1, with “leukocyte infiltration” for “serum LDH levels”, “after” for “after by”, “LAD by hematoxylin/eosin staining based light microscopy” for “LAD”; type: functional, organism-based
Mus musculus [21] = test: Cardioprotective activity in C57BL mouse model of left anterior descending coronary artery ligation-induced myocardial ischemia assessed as survival rate at 0.3 mg/kg, iv treated 1 hr after left anterior descending coronary artery ligation and measured after 7 days post LAD; type: functional
Mus musculus [22] = test: Cardioprotective activity in C57BL mouse model of left anterior descending coronary artery ligation-induced myocardial ischemia assessed as reduction in heart infarct size at 0.3 mg/kg, iv treated 1 hr after left anterior descending coronary artery ligation and measured after 7 days post LAD; type: functional, organism-based

SMILES: CCCCCCCCNc1nc(=O)n(Cc2ccccc2)cc1C
- inhibition [1]: Active
- inhibition [2]: Active
- inhibition [3]: Active
- inhibition [4]: Active
- inhibition [5]: inactive
- inhibition [6]: inactive
- fold change (FC) [7]: 3.1
- fold change (FC) [8]: 15
- fold change (FC) [9]: 2.8
- fold change (FC) [10]: 3.3
- Activity [11]: Active
- Activity (Mus musculus [12]): Active
- Activity (Mus musculus [13]): Active
- Activity (Mus musculus [14]): Active
- Activity (Mus musculus [15]): Active
- Activity (Mus musculus [16]): Active
- Activity (Mus musculus [17]): Active
- Activity (Mus musculus [18]): Active
- Activity (Mus musculus [19]): inactive
- Activity (Mus musculus [20]): Active
- survival at 0.3 mg/kg (Mus musculus [21]): 100%
- Activity (Mus musculus [22]): Active
